Assay results taken from patent publication US20260130885A1, “ANTIMICROBIAL COMPOSITIONS, PHARMACEUTICAL COMPOSITIONS AND USE THEREOF” (priority 2022, published 2026).
Converted amounts (≈) assume the structure as drawn. Read-outs that look alike come from different tables or passages of the source.

Key:
[1] = Antiproliferation assay (MTT); format: cell-based; conditions: human, read-out: CC50 of SC5005
Excerpt: The murine macrophage cell line RAW264.7 (BCRC) and human cervical epithelioid carcinoma cell line HeLa (BCRC) were maintained in Dulbecco's modified Eagle's medium (DMEM; Gibco-BRL) supplemented with 10% heat-inactivated FBS (Gibco-BRL). The human embryonic kidney cell line HEK-293 (BCRC) and the immortalized nontumorigenic keratinocyte cell line HaCaT (obtained from Dr. Yung-Chiy Chang, National Taiwan University, Taiwan) were maintained in Roswell Park Memorial Institute (RPMI; Gibco-BRL) medium supplemented with 10% heat-inactivated FBS. Cells were cultured in T-75 flasks at 37° C. in a 5% CO2 atmosphere.
The effects of SC5005 and DHA on the viability of mammalian cells were assessed using a 3-(4,5-dimethylthiazol-2-yl)-2,5-diphenyl-2H-tetrazolium bromide (MTT) assay in six replicates per treatment group. Briefly, cells were seeded into 96-well, flat-bottomed plates at 10^4 cells/well, cultured for 24 hours, and then exposed to SC5005 at concentrations ranging from 5-30 mg/L or the combination of SC5005 with designated concentrations of DHA for 24 hours. Controls were treated with DMSO and ethanol vehicles at concentrations equal to those for drug-treated cells. At the end of treatments, the medium was replaced with 0.5 g/L MTT-containing culture medium, and the cells were incubated in a CO2 incubator at 37° C. for an additional 1.5 hours. Supernatants were removed from the wells, and the reduced MTT dye was solubilized in DMSO followed by measuring the absorbance at 570 nm of each well using a VersaMax microplate reader (Molecular Devices, USA).

MRSA ATCC43300 = assay: Antibacterial activity assay (MIC, broth microdilution); format: cell-based, Staphylococcus aureus; conditions: for MIC: Staphylococcus aureus
MRSA USA300 = assay: Antibacterial activity assay (MIC by broth microdilution, MBC by subculture); format: cell-based, Staphylococcus aureus
In short: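 CLSI broth microdilution: mid-log cultures (OD600 0.5 to 0.6) diluted to 5×10^5 cfu/mL in CAMHB, exposed to increasing doses in triplicate 24 hours at 37° C. MIC is lowest concentration without visible growth. For USA300, MBC is the lowest dilution without viable bacteria on subculture.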

[2] = test system: Staphylococcus aureus NCTC8325; assay: Time-kill kinetics (cfu assay); format: cell-based; conditions: SC5005 4×MIC, 1 mg/L; FIG. 1
Method: The number of viable bacteria in broth after each exposure period was enumerated by a cfu assay and expressed as cfu/mL; the data shown are the mean±SD (standard deviation) of independent experiments. […] The number of viable bacteria in the broth after each exposure period was calculated by a cfu assay (cfu/mL); the data are shown as the mean±SD of three independent experiments (n=3 for each group). Since the standard deviation of each point is very small, the error line is not shown in each graph. The horizontal dashed line in the upper left graph and the upper right graph represents […] of the bacterial cells killed. In addition, the blank controls in FIG. 1 are shown as filled diamonds.
In this experiment, the inventor analyzed the time-kill kinetics of SC5005, DHA, and a combination thereof against Staphylococcus aureus NCTC8325 and MRSA USA300, and the results are shown in FIG. 1. It can be seen in FIG. 1 that SC5005 killed more than 99.9% of the bacteria within 24 hours. […] Besides, it is well known in the art that Staphylococcus aureus can enter a dormant state (i.e., become the so-called persister cells) and develop resistance to antibiotic treatment, thus leading to repeated bacterial infections.

MRSA SCCmec VT = assay: Antibacterial activity assay (MIC, broth microdilution); format: cell-based, Staphylococcus aureus; conditions: for MIC: Staphylococcus aureus, MRSA
S. aureus NCTC8325 = assay: as above; format: cell-based, Staphylococcus aureus; conditions: for MIC: Staphylococcus aureus
MRSA ATCC33591 = assay: as above; format: cell-based, Staphylococcus aureus; conditions: for MIC: Staphylococcus aureus
S. aureus ATCC29213 = assay: as above; format: cell-based, Staphylococcus aureus; conditions: for MIC: Staphylococcus aureus
S. aureus DAP-NS = assay: as above; format: cell-based, Staphylococcus aureus; conditions: for MIC: Staphylococcus aureus
[3] = test system: antibiotic-resistant Staphylococcus aureus; assay: MIC against all strains of Table 4; format: cell-based; conditions: agent alone, all the bacterial strains under the examination
Method: The antimicrobial activity was based on MIC and MBC; MIC is the minimum inhibitory concentration and MBC is the minimum bactericidal concentration. The MIC of individual test agents against MRSA USA300 strains was determined using the broth microdilution method according to CLSI guidelines. Briefly, overnight bacterial cultures in LB medium were diluted 1:50 in fresh LB medium and incubated at 37° C. until reaching an OD600 of 0.5 to 0.6. Bacterial suspensions were diluted to a final concentration of 5×10^5 cfu/mL in fresh CAMHB and then exposed to each test agent at increasing doses in triplicate in 96-well plates for 24 hours at 37° C. The MIC of each agent was defined as the lowest concentration without visible bacterial growth. […] The lowest broth dilution that had no viable bacteria was considered the MBC.
Then, the combination effect was measured by calculating their corresponding fractional inhibitory concentration index (FICI) with the equation ΣFIC (FICi)=FICA+FICB=(CombA/MICA)+(CombB/MICB), where MICA and MICB are the MICs of drugs A and B alone, respectively, and CombA and CombB are the concentrations of drugs A and B in combination, respectively. […]
The antibacterial activity of the SC5005-DHA composition against a series of antibiotic-resistant Staphylococcus aureus was analyzed, and the results are shown in Table 4.

MRSA ATCC33592 = assay: Antibacterial activity assay (MIC, broth microdilution); format: cell-based, Staphylococcus aureus; conditions: for MIC: Staphylococcus aureus

Compound `O=C(Nc1ccc(Cl)c(C(F)(F)F)c1)C(CCCl)C(=O)Nc1ccc(Cl)c(C(F)(F)F)c1` [SC5005] has a CC50 at 24 h ([1]; HEK-293 cells, DHA 0 mg/L) of 14100 ± 1400 ng/mL, a CC50 at 24 h ([1]; HEK-293 cells, DHA 4 mg/L) of 15600 ± 600 ng/mL and a CC50 at 24 h ([1]; HEK-293 cells, DHA 8 mg/L) of 14900 ± 1600 ng/mL. For the same compound, the CC50 at 24 h ([1]; HEK-293 cells, DHA 16 mg/L) was 14000 ± 800 ng/mL, the CC50 at 24 h ([1]; HaCaT keratinocyte cells, DHA 0 mg/L) was 18000 ± 1700 ng/mL and the CC50 at 24 h ([1]; HaCaT keratinocyte cells, DHA 4 mg/L) was 19500 ± 1700 ng/mL. The CC50 at 24 h ([1]; HaCaT keratinocyte cells, DHA 8 mg/L) was 20500 ± 300 ng/mL, the CC50 at 24 h ([1]; HaCaT keratinocyte cells, DHA 16 mg/L) was 18100 ± 1600 ng/mL and the CC50 at 24 h ([1]; HeLa cells, DHA 0 mg/L) was 22500 ± 700 ng/mL. It also gave a CC50 at 24 h ([1]; HeLa cells, DHA 4 mg/L) of 24200 ± 3600 ng/mL, a CC50 at 24 h ([1]; HeLa cells, DHA 8 mg/L) of 21900 ± 1600 ng/mL and a CC50 at 24 h ([1]; HeLa cells, DHA 16 mg/L) of 21400 ± 1400 ng/mL. The combination effect (MRSA ATCC43300; MIC, +8 mg/L DHA) was “(Syn) (Synergy (Syn) was defined as an FICI≤0.5)”, the MIC (MRSA ATCC43300; +8 mg/L DHA) was 0.24 ng/mL (≈ 0.46 nM) and the MIC (MRSA ATCC43300; agent alone) was 250 ng/mL (≈ 479 nM). It also gave an MBC (MRSA USA300; +8 mg/L DHA) of 7.8 ng/mL, an MIC (MRSA USA300; +8 mg/L DHA) of 0.0038 ng/mL and an MIC (MRSA USA300; +8 mg/L DHA, MRSA USA300 (Table 4)) of 0.015 ng/mL. For the same compound, the combination effect (MRSA USA300; MIC, +8 mg/L DHA, MRSA USA300 (Table 4)) was “(Syn) (Synergy (Syn) was defined as an FICI≤0.5)”, the MBC (MRSA USA300; Staphylococcus aureus, MRSA / SC5005 / USA300, fatty acid 0 mg/L (SC5005 alone), read-out: MBC SC5005) was 2000 ng/mL and the MIC (MRSA USA300; Staphylococcus aureus, MRSA / SC5005 / USA300, fatty acid 0 mg/L (SC5005 alone), read-out: MIC SC5005) was 250 ng/mL. It also gave an MBC (MRSA USA300; Staphylococcus aureus, amide compound alone, read-out: MBC) of 2000 ng/mL, an MIC (MRSA USA300; Staphylococcus aureus, amide compound alone, read-out: MIC) of 250 ng/mL and an MIC (MRSA USA300; agent alone, MRSA USA300 (Table 4)) of 250 ng/mL. The “bacteria killed within 24 hours” value [2] was “more than 99.9%”, the combination effect (MRSA SCCmec VT; MIC, +8 mg/L DHA) was “(Syn) (Synergy (Syn) was defined as an FICI≤0.5)” and the MIC (MRSA SCCmec VT; +8 mg/L DHA) was 0.0019 ng/mL (≈ 0.00364 nM). The MIC (MRSA SCCmec VT; agent alone) was 250 ng/mL (≈ 479 nM), the combination effect (S. aureus NCTC8325; MIC, +8 mg/L DHA) was “(Syn) (Synergy (Syn) was defined as an FICI≤0.5)” and the MIC (S. aureus NCTC8325; NCTC8325, +8 mg/L DHA) was 0.0019 ng/mL (≈ 0.00364 nM). The MIC (S. aureus NCTC8325; NCTC8325, agent alone) was 250 ng/mL (≈ 479 nM), the combination effect (MRSA ATCC33591; MIC, +8 mg/L DHA) was “(Syn) (Synergy (Syn) was defined as an FICI≤0.5)” and the MIC (MRSA ATCC33591; +8 mg/L DHA) was 0.061 ng/mL (≈ 0.117 nM). The MIC (MRSA ATCC33591; agent alone) was 250 ng/mL (≈ 479 nM), the combination effect (S. aureus ATCC29213; MIC, +8 mg/L DHA) was “(Syn) (Synergy (Syn) was defined as an FICI≤0.5)” and the MIC (S. aureus ATCC29213; ATCC29213, +8 mg/L DHA) was 3.9 ng/mL (≈ 7.48 nM). The MIC (S. aureus ATCC29213; ATCC29213, agent alone) was 250 ng/mL (≈ 479 nM), the combination effect (S. aureus DAP-NS; MIC, +8 mg/L DHA) was “(Syn) (Synergy (Syn) was defined as an FICI≤0.5)” and the MIC (S. aureus DAP-NS; +8 mg/L DHA) was 0.0019 ng/mL (≈ 0.00364 nM). The MIC (S. aureus DAP-NS; agent alone) was 250 ng/mL (≈ 479 nM), the MIC [3] was 250 ng/mL and the combination effect (MRSA ATCC33592; MIC, +8 mg/L DHA) was “(Syn) (Synergy (Syn) was defined as an FICI≤0.5)”. It also gave an MIC (MRSA ATCC33592; +8 mg/L DHA) of 0.49 ng/mL (≈ 0.939 nM) and an MIC (MRSA ATCC33592; agent alone) of 250 ng/mL (≈ 479 nM).
